Results as given in patent publication US20200360391A1, “Medicinal Composition for Treating Intractable Heart Disease” (Osaka University, priority 2016, published 2020).

Key:
[1] = system: lauric acid-induced rat hind limb circulatory disorder model; settings: oral, 7 consecutive days; cited from earlier work
rats = settings: cited from earlier work
[2] = system: rat coronary artery complete ischemia model; assay: Model of ischemia (MI) by rat coronary artery complete ligation (Tests 1 and 2): echocardiography, body weight; settings: for Action on left ventricular systolic function: MI Test 1, 28-day repeated oral administration b.i.d., NOAEL-based doses
[3] = system: spontaneous dilated cardiomyopathy (J2N-k) hamster model; assay: Spontaneous dilated cardiomyopathy (J2N-k) hamster model, 8-week administration from 20 weeks of age (Tests 1-3): echocardiography, body weight
How it was run: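 Male J2N-k δ-glycan-deficient hamsters (delivered at 18 weeks; 2-week acclimation) were dosed by oral gavage twice daily for 8 weeks in 0.5% CMC-Na (G in distilled water; 5 mL/kg) at human-equivalent doses, e.g. cilostazol 1.7 mg/kg. Camostat PLGA preparation was given 10 mg/kg s.c. every 4 weeks. Echocardiographic EF/FS changes from baseline were assessed at 4 and 8 weeks versus vehicle.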

[4] = Canine rapid pacing severe dilated cardiomyopathy model, long-term repeated oral administration; assay type: in vivo; settings: dog, in vivo; after oral administration, 3 mg/kg
Protocol: (§1) A sham operation was performed for a Sham group. After the pacemaker was operated, and it was confirmed in an electrocardiogram (Lead II) that the heartbeat was linked to the pulse rate, the incision site was sutured.
(§2) The animals were grouped evenly based on the cardiac function (EF) 4 weeks after rapid pacing. […] An empty capsule was administered to the control group in the same manner.
(§3) Electrocardiography (Lead II) was performed once a week during the period of induction of pathological condition (4 weeks). After administration of the test substance, electrocardiography was performed at the time of echocardiographic measurement. Examination with a stethoscope was performed every day. Specifically, the number of beats per 10 seconds was measured every day, and if an abnormality was found in examination with a stethoscope, an electrocardiogram was measured to confirm the presence or absence of pacing errors.
(§4) The general condition of the animals (death, posture, activity, color of gums, the presence or absence of ascites, feces, etc.) and food intake were observed every day (at the time of administration in the morning and in the evening, i.e., twice). […] The survival rate was observed twice daily for 6 months from the day of the start of administration of the test substance. Moribund animals were determined to be dead when they had no reaction in at least one item of examination of pinna, auditory, and nociception reflexes.
(§5) The body weight was measured on the date of implantation of the pacemaker, the date of operation of the pacemaker, and every week thereafter.
(§6) Echocardiographic measurement was performed before the preparation of the model (Pre); Week 4 (at the time of grouping) (before administration of the test substance); and 2 weeks, 4 weeks (1 month), 2 months, 3 months, 4 months, 5 months, and 6 months (at the time of dissection) after the start of administration of the test substance, as measurement points.
(§7) The echocardiographic measurement was performed without anesthesia, using an ultrasound imaging apparatus. A sector probe (10 MHz) was placed on the chest, and the diastolic left ventricular internal dimension (LVIDd), the systolic left ventricular internal dimension (LVIDs), the interventricular septal thickness at end-diastole (IVSTd), and the left ventricular posterior wall thickness in end diastole (LVPWd) were measured at M-mode. Moreover, the ejection fraction […] and the fractional shortening […] were calculated.

[5] = system: canine rapid pacing severe dilated cardiomyopathy model; assay: as above; assay type: in vivo
Protocol: as §1, §2, §3, §4, §5, §6, §7

dogs = settings: repeated oral administration in dogs; cited from earlier work
[6] = system: spontaneous dilated cardiomyopathy (J2N-k) hamster model; assay: Long-term (36 weeks) administration in J2N-k hamster model: cardiac function, survival rate; assay type: in vivo
Protocol: ONO-1301 and (K) candesartan, which is ARB, were each individually orally administered to a δ-glycan-deficient spontaneous dilated cardiomyopathy (J2N-k) hamster model twice daily repeatedly for 36 weeks, after the onset of pathological condition (20 weeks old); and changes in cardiac function and survival rates in long-term administration were compared for evaluation. Specifically, echocardiographic measurement was performed after the onset of pathological condition (20 weeks old); the animals were grouped evenly based on the ejection fractions (EF values) and the body weights (Table 15), and each test substance was individually administered for 36 weeks.
The test was performed in the same manner as described in the section “1. Investigation of effects in spontaneous dilated cardiomyopathy (J2N-k) hamster model” above.
ONO-1301 was administered at 3 mg/kg twice per day. Candesartan was administered at 3 mg/kg once per day, and only vehicle was administered at the second administration. To the control group, vehicle (0.5% CMC-Na) was administered twice daily.

[7] = MI Test 1, NOAEL doses, 1 Day (grouping), mean ± S.D.
[8] = MI Test 1, NOAEL doses, 7 Day, mean ± S.D.
[9] = MI Test 1, NOAEL doses, 14 Day, mean ± S.D.
[10] = MI Test 1, NOAEL doses, 21 Day, mean ± S.D.
[11] = MI Test 1, NOAEL doses, 29 Day, mean ± S.D.
[12] = Test 2, p.o. b.i.d., NOAEL-based dose
[13] = Test 1, p.o. b.i.d., NOAEL-based dose

SMILES: CC#CCC(C)[C@H](O)/C=C/[C@@H]1[C@H]2c3cccc(CCCC(=O)O)c3O[C@H]2C[C@H]1O (mixture of isomers) [Compound F, Beraprost sodium]
- Dose significantly ameliorating the disorder of the hind limbs [1]: 300 µg/kg/day
- No-observed-effect level (rats; rats, 12 months): 0.01 mg/kg/day
- Dose at which toxic findings were observed (rats; repeated administration in rats, duration per compound): ≥ 0.1 mg/kg/day
- Action on left ventricular systolic function [2]: suppression action on the deterioration of left ventricular systolic function
- Body weight [2, 7]: 230.4 ± 3.3 g
- % FS: value of change compared with the value on Day 1 [2, 8]: 0%
- Body weight [2, 8]: 232.3 ± 10.0 g
- EF: value of change compared with the value on Day 1 [2, 8]: 0%
- % FS: value of change compared with the value on Day 1 [2, 9]: -2%
- Body weight [2, 9]: 252.6 ± 9.8 g
- EF: value of change compared with the value on Day 1 [2, 9]: -3%
- Body weight [2, 10]: 272.9 ± 7.7 g
- % FS: value of change compared with the value on Day 1 [2, 11]: -3%
- Body weight (g) [2, 11]: 295.4 ± 8.6 (7) g
- EF: value of change compared with the value on Day 1 [2, 11]: -6%
- Body weight change compared with control group ([2]; MI Test 1, until Day 29): Significant body weight gain suppression
- Body weight 0 W ([3]; Test 2, at grouping): 119.9 g
- LVIDd 4 W ([3]; Test 2, p.o. b.i.d.): 7.1 mm
- LVIDd 8 W ([3]; Test 2, p.o. b.i.d.): 7.5 mm
- LVIDs 4 W ([3]; Test 2, p.o. b.i.d.): 5.9 mm
- LVIDs 8 W ([3]; Test 2, p.o. b.i.d.): 6.3 mm
- % FS 4 W [3, 12]: significantly higher
- % FS value of change at 4 W compared with 0 W [3, 12]: significantly higher
- Body weight 1 W [3, 12]: 120.8 g
- Body weight 2 W [3, 12]: 122.7 g
- Body weight 3 W [3, 12]: 124.9 g
- Body weight 4 W [3, 12]: 127.1 g
- Body weight 5 W [3, 12]: 128.2 g
- Body weight 6 W [3, 12]: 129.6 g
- Body weight 7 W [3, 12]: 129.9 g
- Body weight 8 W [3, 12]: 130.0 g
- EF 4 W [3, 12]: significantly higher

SMILES: O=C(O)COc1cccc2c1CCC=C2CCO/N=C(\c1ccccc1)c1cccnc1 [Compound A, (E)-[5-[2-[1-phenyl-1-(3-pyridyl)methylideneaminooxy]ethyl]-7,8-dihydronaphthalen-1-yloxy]acetic acid]
- Tmax [4]: 1.5 to 2.5 h
- Number of animals alive 26 weeks after start of administration ([5]; 3 mg/kg p.o. twice daily): 1/6
- Time after start of administration at which death was first observed ([5]; 3 mg/kg p.o. twice daily): 44 days
- Survival rate (Kaplan-Meier curve) compared with control ([5]; 3 mg/kg p.o. twice daily, 26 weeks): significant prolonging effect on the survival rate
- Amount of change (Δ) in EF compared with control ([5]; 2 weeks and 4 weeks after start of administration): significantly higher
- Body weight gain compared with control ([5]; 6 weeks and 8 weeks after start of administration): suppressed
- Effect on heart rate in echocardiography at Tmax ([5]; oral 3 mg/kg): no effect on the heart rate
- No-observed-adverse-effect level (rats; repeated oral administration in rats): 3 mg/kg
- Action on left ventricular systolic function [2]: suppression action on the deterioration of left ventricular systolic function
- Body weight [2, 7]: 231.4 ± 4.9 g
- % FS: value of change compared with the value on Day 1 [2, 8]: 1%
- Body weight [2, 8]: 237.8 ± 15.0 g
- EF: value of change compared with the value on Day 1 [2, 8]: 1%
- % FS: value of change compared with the value on Day 1 [2, 9]: 0%
- Body weight [2, 9]: 257.1 ± 20.7 g
- EF: value of change compared with the value on Day 1 [2, 9]: 0%
- Body weight [2, 10]: 277.1 ± 17.3 g
- % FS: value of change compared with the value on Day 1 [2, 11]: -3%
- Body weight [2, 11]: 293.6 ± 18.9 g
- EF: value of change compared with the value on Day 1 [2, 11]: -6%
- No-observed-adverse-effect level (dogs): 3 mg/kg
- Effect in long-term administration compared with candesartan [6]: effect superior to that of candesartan
- EF compared with control group ([6]; 3.0 mg/kg): significant improvement effect
- FS% compared with control group ([6]; 3.0 mg/kg): Significantly higher values
- Body weight 0 W ([3]; Test 1, at grouping): 112.5 g
- LVIDd 4 W ([3]; Test 1, p.o. b.i.d.): 6.9 mm
- LVIDd 8 W ([3]; Test 1, p.o. b.i.d.): 7.6 mm
- LVIDs 4 W ([3]; Test 1, p.o. b.i.d.): 5.6 mm
- LVIDs 8 W ([3]; Test 1, p.o. b.i.d.): 6.2 mm
- Body weight 4 W [3, 13]: 120.2 g
- Body weight 8 W [3, 13]: 120.6 g
